Test results taken from patent US20080214537A1, “BRIDGED PHENANTHRIDINES” (CARA THERAPEUTICS, INC., priority 2007, published 2008).

Key:
[1] = target: human CB2 receptor (hCB2) (Homo sapiens, UniProt P34972); test: cAMP assay (LANCE TR-FRET) in CHO-K1 cells expressing hCB2; assay type: cell-based; details: for Emax: CHO-K1, intrinsic activity: percent maximal activation compared to full activation by CP55,940 (1 μM = 100%), read-out: hCB2 % Max Range; for EC50: CHO-K1 cells stably expressing hCB2, intracellular cAMP, NKH-477 prestimulated, average of at least three replicates
Chain of human CB2 receptor (hCB2) (P34972 whole entry): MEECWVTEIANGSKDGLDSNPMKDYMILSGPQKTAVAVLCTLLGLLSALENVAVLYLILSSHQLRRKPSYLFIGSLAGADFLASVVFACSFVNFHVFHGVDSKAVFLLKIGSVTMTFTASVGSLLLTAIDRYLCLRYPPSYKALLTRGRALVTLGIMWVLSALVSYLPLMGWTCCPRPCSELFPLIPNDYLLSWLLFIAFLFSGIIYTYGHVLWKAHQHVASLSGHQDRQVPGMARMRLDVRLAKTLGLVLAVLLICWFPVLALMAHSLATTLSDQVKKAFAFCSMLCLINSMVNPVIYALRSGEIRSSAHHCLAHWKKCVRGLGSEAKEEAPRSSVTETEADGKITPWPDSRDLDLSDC
Method: (§1) The ability of compounds to act as agonists or inverse agonists at human CB2 and CB1 receptors (hCB2, hCB1, respectively) was determined by measuring changes in intracellular cAMP levels. Chinese Hamster Ovary (CHO-K1) cell lines stably expressing hCB2 (Genebank: X74328) or hCB1 (Genebank: X54937) were purchased from Euroscreen (Gosselies, Belgium).
(§2) Cell lines were grown in suspension in EX-CELL 302 CHO Serum-free medium (Sigma, catalog #14324C) supplemented with 1% Fetal Bovine Serum, glutamine and with or without non-essential amino-acids under 0.4 mg/mL G418 selection.
(§3) Receptor mediated responses were determined by measuring changes in intracellular cAMP using LANCE cAMP detection kit (catalog #AD0264, PerkinElmer, Wellesley, Mass.) based on time-resolved fluorescence resonance energy transfer (TR-FRET). Changes in cAMP were determined in cells pre-incubated with IBMX (isobutyl methylxanthine) and prestimulated with NKH-477 (a water soluble forskolin derivative, catalog #1603, Tocris, Ellisville, Mo.) to increase basal cAMP levels as detailed below.
(§4) On the day of the experiment, cells were spun at low speed for 5 min at room temperature. The supernatant was removed and cells were resuspended in stimulation buffer (Hanks Buffered Salt Solution/5 mM HEPES, containing 0.5 mM IBMX (catalog #17018, Sigma) and 0.02% BSA (PerkinElmer, catalog #CR84-100)). Cell clumps were removed by filtering through cell strainer 40 μm (BD Falcon, Discovery Labware, Bedford, Mass.) and diluted to 2×10^5 cells/mL. Antibody supplied with the LANCE cAMP immunoassay kit was then added according to the manufacturer's instructions. An aliquot of cells was taken for un-induced controls. To the remaining cells was added NKH-477 (a water soluble forskolin derivative, Tocris catalog #1603) to a final concentration of 2-8 μM. Cells were then incubated for either 25 or 30 min at room temperature prior to adding to Proxiplates containing test compounds (final DMSO concentration was less than 0.5%) with a Multidrop bulk dispenser, followed by a sixty minute incubation at room temperature. The response was stopped by addition of the detection mix supplied with the LANCE kit.
(§5) The reagents were allowed to equilibrate for three hours prior to reading on an Envision multi-mode detector (PerkinElmer). TR-FRET was measured using a 330-380 nm excitation filter, 615 and 665 nm emission filters, dichroic mirror 380 nm and Z=1 mm.
(§6) Cyclic AMP concentrations in each well were back-calculated from a cAMP standard curve run concurrently during each assay. Each plate contained 16 wells of forskolin stimulated cells and 16 wells of forskolin plus CP55,940-treated. CP55,940-treated cells were treated with CP55,940 (Tocris catalog #0949) at 1 μM and the maximal response was used as the full range (100%) standard. WIN55,212 (Tocris catalog #1038) was used as an internal standard. Concentrations of cAMP were expressed as a percent of the difference of these two groups of wells. Concentration-response data including EC50 (the concentration of compound producing 50% of the maximal response) and intrinsic activity (the percent maximal activation compared to full activation by CP55,940) were determined using a four-parameter non-linear regression algorithm (Xlfit equation 251, IDBS). Assays were performed with at least three replicates per compound and averaged results for the several compounds of the invention are shown in Table I.

[2] = target: human CB1 receptor (hCB1) (Homo sapiens, UniProt P21554); test: cAMP assay (LANCE TR-FRET) in CHO-K1 cells expressing hCB1; assay type: cell-based; details: activity on hCB1 represents inverse agonism; for Emax: CHO-K1, percent of range defined by CP55,940 (1 μM = 100%), read-out: hCB1 % Max Range; for EC50: CHO-K1 cells stably expressing hCB1, intracellular cAMP, NKH-477 prestimulated
Chain of human CB1 receptor (hCB1) (P21554 whole entry): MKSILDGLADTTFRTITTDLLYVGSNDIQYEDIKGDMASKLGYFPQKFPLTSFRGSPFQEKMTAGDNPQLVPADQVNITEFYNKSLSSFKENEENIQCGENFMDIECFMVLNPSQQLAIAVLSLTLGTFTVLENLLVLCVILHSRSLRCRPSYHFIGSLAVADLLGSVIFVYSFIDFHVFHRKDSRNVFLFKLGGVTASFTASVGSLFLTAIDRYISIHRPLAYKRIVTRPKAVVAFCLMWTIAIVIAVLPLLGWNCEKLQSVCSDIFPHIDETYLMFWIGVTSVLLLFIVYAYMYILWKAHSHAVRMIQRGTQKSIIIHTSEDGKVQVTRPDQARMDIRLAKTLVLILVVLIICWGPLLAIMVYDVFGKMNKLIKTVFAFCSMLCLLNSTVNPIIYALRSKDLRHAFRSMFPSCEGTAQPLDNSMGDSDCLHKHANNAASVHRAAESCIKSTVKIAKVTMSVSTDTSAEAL
Method: as §1, §2, §3, §4, §5
as §6, with “IDBS).” for “IDBS). Assays were performed with at least three replicates per compound and averaged results for the several compounds of the invention are shown in Table I.”

SMILES | Emax [1] [%] | EC50 [1] [nM] | Emax [2] [%] | EC50 [2] [nM] | hCB1 % Max Range ([2]; percent of range defined by CP55,940 (1 μM = 100%)) [%]
CCCNC(=S)Nc1ccc2c(c1)C1C3CCC(C3)C1C(c1ccc(C)cc1)N2 (centres unmarked) [(8), Bridged 1-propyl-3-(6-p-tolyl-5,6,6a,7,8,9,10,10a-octahydrophenanthridin-2-yl)thiourea] | < 40 | > 10000 | 63 | 2040 | 
O=S(=O)(c1ccc2c(c1)C1C3CCC(C3)C1C(c1nccs1)N2)N1CCOCC1 (centres unmarked) [(36), Bridged 4-(6-(thiazol-2-yl)-5,6,6a,7,8,9,10,10a-octahydrophenanthridin-2-ylsulfonyl)morpholine] | 57.1 | 4120 | < 40 | > 10000 | 
O=C(Nc1ccc2c(c1)C1C3CCC(C3)C1C(c1c(Cl)cccc1Cl)N2)C1CC1 (centres unmarked) [(20), Bridged N-(6-(2,6-dichlorophenyl)-5,6,6a,7,8,9,10,10a-octahydrophenanthridin-2-yl)cyclopropanecarboxamide] | < 40 | > 10000 | < 40 | > 10000 | 
CCCNC(=S)Nc1ccc2c(c1)C1C3CCC(C3)C1C(c1c(Cl)cccc1Cl)N2 (centres unmarked) [(27), Bridged 1-(6-(2,6-dichlorophenyl)-5,6,6a,7,8,9,10,10a-octahydrophenanthridin-2-yl)-3-propylthiourea] | < 40 | > 10000 | < 40 | > 10000 | 
CC(=O)Nc1ccc2c(c1)C1C3CCC(C3)C1C(c1ccc(C)cc1)N2 (single isomer, unassigned) [(25a), Bridged N-(6-p-tolyl-5,6,6a,7,8,9,10,10a-octahydrophenanthridin-2-yl)acetamide] | < 40 | > 10000 |  | 3280 | 78
CS(=O)(=O)N(c1ccc2c(c1)C1C3CCC(C3)C1C(c1ccccc1)N2)S(C)(=O)=O (centres unmarked) [(52), Bridged N-(methylsulfonyl)-N-(6-phenyl-5,6,6a,7,8,9,10,10a-octahydrophenanthridin-2-yl)methanesulfonamide] | 102 | 0.63 | < 40 | > 10000 | 
CN(C)S(=O)(=O)c1ccc2c(c1)C1C3CCC(C3)C1C(c1ccnn1C)N2 (centres unmarked) [(33), Bridged N,N-dimethyl-6-(1-methyl-1H-pyrazol-5-yl)-5,6,6a,7,8,9,10,10a-octahydrophenanthridine-2-sulfonamide] | 94.9 | 7.5 | < 40 | > 10000 | 
Cc1ccc(C2Nc3ccc(NC(=O)CC4CCCO4)cc3C3C4CCC(C4)C23)cc1 (centres unmarked) [(16), Bridged 2-(tetrahydrofuran-2-yl)-N-(6-p-tolyl-5,6,6a,7,8,9,10,10a-octahydrophenanthridin-2-yl)acetamide] | 52 | 102 | < 40 | > 10000 | 
O=C(NCc1ccccc1)c1ccc2c(c1)C1C3CCC(C3)C1C(c1ccccc1)N2 (centres unmarked) [(28), Bridged N-benzyl-6-phenyl-5,6,6a,7,8,9,10,10a-octahydrophenanthridine-2-carboxamide] | 84.4 | 373 | < 40 | > 10000 | 
CCCNC(=O)Nc1ccc2c(c1)C1C3CCC(C3)C1C(c1c(Cl)cccc1Cl)N2 (centres unmarked) [(26), Bridged 1-(6-(2,6-dichlorophenyl)-5,6,6a,7,8,9,10,10a-octahydrophenanthridin-2-yl)-3-propylurea] | < 40 | > 10000 | < 40 | > 10000 | 
Cc1ccc(C2Nc3ccc(N4CCOCC4)cc3C3C4CCC(C4)C23)cc1 (centres unmarked) [(18), Bridged 4-(6-p-tolyl-5,6,6a,7,8,9,10,10a-octahydrophenanthridin-2-yl)morpholine] | < 40 | > 10000 | < 40 | > 10000 | 
Cn1nccc1C1Nc2ccc(S(=O)(=O)N3CCOCC3)cc2C2C3CCC(C3)C12 (centres unmarked) [(37), Bridged 4-(6-(1-methyl-1H-pyrazol-5-yl)-5,6,6a,7,8,9,10,10a-octahydrophenanthridin-2-ylsulfonyl)morpholine] | 92.6 | 1.7 | < 40 | > 10000 | 
c1ccc(C2Nc3ccc(N4CCOCC4)cc3C3C4CCC(C4)C23)cc1 (centres unmarked) [(17), Bridged 4-(6-phenyl-5,6,6a,7,8,9,10,10a-octahydrophenanthridin-2-yl)morpholine] | 94 | 140 | < 40 | > 10000 | 
CCC1Nc2ccc(NC(=O)C3CC3)cc2C2C3CCC(C3)C12 (centres unmarked) [(21), Bridged N-(6-ethyl-5,6,6a,7,8,9,10,10a-octahydrophenanthridin-2-yl)cyclopropanecarboxamide] | 84 | 1200 | < 40 | > 10000 | 
CC(=O)NS(=O)(=O)c1ccc2c(c1)C1C3CCC(C3)C1C(c1ccnn1C)N2 (centres unmarked) [(47), Bridged N-(6-(1-methyl-1H-pyrazol-5-yl)-5,6,6a,7,8,9,10,10a-octahydrophenanthridin-2-ylsulfonyl)acetamide] | 82.5 | 1490 | < 40 | > 10000 | 
CCCNC(=S)Nc1ccc2c(c1)C1C3CCC(C3)C1C(c1ccccc1)N2 (centres unmarked) [(6), Bridged 1-propyl-3-(phenyl-5,6,6a,7,8,9,10,10a-octahydrophenanthridin-2-yl)thiourea] | 76 | 99.8 | 53 | 1860 | 
CC(=O)Nc1ccc2c(c1)C1C3CCC(C3)C1C(c1c(Cl)cccc1Cl)N2 (centres unmarked) [(24), Bridged N-(6-(2,6-dichlorophenyl)-5,6,6a,7,8,9,10,10a-octahydrophenanthridin-2-yl)acetamide] | < 40 | > 10000 | < 40 | > 10000 | 
O=S(=O)(c1ccc2c(c1)C1CC=CC1C(c1ccccc1)N2)N1CCCCC1 (centres unmarked) [(48), 4-phenyl-8-(piperidin-1-ylsulfonyl)-3a,4,5,9b-tetrahydro-1H-cyclopenta[c]quinoline] | 82.3 | 73.9 | < 40 | > 10000 | 
Cc1nc(-c2ccc3c(c2)C2C4CCC(C4)C2C(c2ccnn2C)N3)cs1 (centres unmarked) [(44), Bridged 2-methyl-4-(6-(1-methyl-1H-pyrazol-5-yl)-5,6,6a,7,8,9,10,1 0a-octahydrophenanthridin-2-yl)thiazole] | 70.2 | 187 | 111 | 2930 | 
O=S(=O)(c1ccc2c(c1)C1C3CCC(C3)C1C(c1cncnc1)N2)N1CCOCC1 (centres unmarked) [(35), Bridged 4-(6-(pyrimidin-5-yl)-5,6,6a,7,8,9,10,10a-octahydrophenanthridin-2-ylsulfonyl)morpholine] | 66.6 | 1300 | < 40 | > 10000 | 
